We go through three compounds from the NIST ThermoML archive (doi:10.1016/j.jct.2007.01.013).

Numbers after ± are expanded uncertainties.

For data set [1] the following is noted: Liquid; for mass density: 101.33 kPa; for Normal boiling temperature: Distillation.
Data set [2] is described as follows: refractive index (Na D-line) (dimensionless). Particulars: 293.15 K; 101.33 kPa; Liquid; Standard Abbe refractometry.

As to `CCOC(=O)CC` [ethyl propanoate], in data set [1] (298 K), the mass density was 884.35 ± 1 kg/m3. In addition, the Normal boiling temperature in data set [1] stood at 99.1 ± 0.2 °C. Besides, in data set [2], the refractive index is recorded as 1.38394 ± 0.0007.

Take `COC(=O)c1ccccc1C(=O)OC` [dimethyl 1,2-benzenedicarboxylate]: the mass density in data set [1] (293.15 K) was determined as 1190.53 ± 1.5 kg/m3. The Normal boiling temperature in data set [1] amounted to 283.6 ± 0.2 °C. Moreover, the refractive index in data set [2] was 1.51384 ± 0.0007.

As to `CCCCOC(=O)c1ccccc1C(=O)OCCCC` [dibutyl phthalate], the mass density in data set [1] (293.15 K) was 1046.54 ± 0.79 kg/m3. Besides, the Normal boiling temperature in data set [1] was 340.1 ± 0.2 °C. In addition, the refractive index in data set [2] came out at 1.49114 ± 0.0007.

The term mass density denotes the mass of a sample divided by its volume. As a reminder, the refractive index is a measure of how strongly the sample bends light.
